In patent US20110060000A1, “ACRIDINE ANALOGS IN THE TREATMENT OF GLIOMAS” (priority 2009, published 2011):

Experiments:
phospholipase A2 (PLA2) = conditions: cited from earlier work
PLA2 = conditions: coinjection with PLA2; cited from earlier work
GRP78 promoter = assay: GRP78-luc reporter assay in stably transfected U87-MG clone A5; assay type: cell-based, human; conditions: for GRP78 promoter driven luciferase (GRP78-luc) expression: result in words
Procedure: The promoter region contains the sequence of the GRP78 promoter from −139 to +7. In this part of the promoter there are three ER stress responsive elements and the TATA box to which is linked in frame the firefly luciferase sequence.
Compounds were plated in half area 96 well plates at the final concentration of 2 μM in 5 μl of media. Cells were added in 45 μl afterwards at the density of 5000/well. Plates were read after 16 h in an Envision high efficiency plate reader. Results are represented as a plate layout in which different shadings indicate the different rows and the number indicate the different lines. As a standard negative and positive controls were located in the outer columns.
A construct coding a large part of the human GRP78 promoter, attached to the reporter gene firefly luciferase was used (see FIG. 16 for a schematic) (Yoshida et al., 1998).
The promoter region contains the sequence of the GRP78 promoter from −139 to +7. In this part of the promoter there are three ER stress responsive elements and the TATA box to which is linked in frame the firefly luciferase sequence (FIG. 16)(Yoshida et al., 1998). The construct, which was cloned in an expression vector, was transfected into E. Coli, amplified, purified and checked it by enzymatic digestion. Thereafter, C6 and U87-MG were transiently transfected with the plasmid. After 24 hours the cells were challenged with THAP and TUN for 24 hours. Although, in transient transfection only a small part of the cell population expresses the transduced gene, a significant induction by THAP and TUN was detected over 24 hours. Armed with these encouraging data human glioma cells U87-MG were transfected with both the above described construct and a construct carrying resistance to blasticidin. The sensitivity of these cells to the antibiotic has previously been assessed. 24 hours after the transfection the antibiotic at its 75% inhibitory concentration was added. The cells were given time to proliferate. Two pools called P2 and P5 were selected and luciferase expression was assessed. […] Clones from these two pools were isolated. Luciferase expression in the clones was characterized and a clone called A5, in which baseline expression of the construct was reasonably low and induction with two positive controls was large and consistent, was selected. This clone, several back up clones, and the pools were amplified and frozen in sufficient amounts to guarantee continuity in case needed. Next, the effect of the incubation time on luciferase induction was assessed. Since this assay can be affected by false negative due to toxicity of hit compounds, the incubation times were kept as short as possible. Therefore, several incubation times were tested, including 8, 16 and 24 h. The goal was not to incubate longer than 24 hours because toxicity starts to develop at that time point. […] At this time point the induction is about 6-7 fold. Previously, using a different assay, a half a million compound library was screened very easily using 2.5 thousands cells per well in 1536 plates. […] With this cell number the dynamic range is large and the fold of induction of 6-7 is maintained.
It is common practice in the field of high throughput screening to assess the so called z number of the assay. This statistical parameter indicates the suitability of a given assay for high throughput screening. The z-value in a word describes the likelihood of a single point hit not to be false positive. The z value is a number lower than or equal to one. Values above 0.5 indicate a robust assay. Values below 0.5 but above 0 indicate an assay that probably needs to be run in duplicate. Negative values indicate assays whose predictability is very low. Z values are usually determined in a high density format plate usually a 96 well plate in manual conditions or a 384-1536 plate format in automated liquid handling environment. Z value determination has been performed using half area 96 well plates in manual mode. […]

glioma cells = assay: Gliotoxicity, cell line not stated; assay type: cell-based; conditions: cell line not stated
Source text: Spiperone is a selective D2 dopamine receptor antagonist. This drug is used in the treatment of schizophrenia and other hallucinatory states. […] In an effort to develop Structure-Activity Relationships around the chosen compounds, a search of commercially available compounds that are either close structural analogs of these lead compounds (for example, acridine and quinoline analogs of quinacrine) or are related to these in terms of their pharmacological activity (dopamine receptor antagonists related to spiperone) was performed.

C6 [1] = assay: [Ca2+]i measurement in C6; assay type: cell-based, rat
Source text: (Statistical analysis it is shown in the inset. Values at the peak of the response have been analyzed using ANOVA followed by T-test, ** indicate P<0.01.).
Ca^2+ mobilization from ER was caused using an agonist acting via inositol trisphosphate elevation, mimicking physiological responses. In these conditions the dynamics of Ca^2+ transients were observe in these two cell lines. It appears evident that the plateau phase in C6 is consistently larger than in astrocytes.
Panel A: Challenge of astrocytes with ATP show the unchanged typical spike and plateau response. Panel B: In C6 an oscillatory pattern is readily detectable in response to treatment with TUN.
Tools and protocols have been developed to cleanly observe capacitative Ca^2+ entry (CCE), the phenomenon that allows the replenishment of intracellular Ca^2+ (ICS) stores and make quantitative and qualitative assessments. In particular, in astrocytes, capacitative Ca^2+ entry happens in absence of cytoplasmic Ca^2+ concentration ([Ca^2+]i) elevation (Grimaldi; 2006)(FIG. 1). […] The study was designed to investigate if there was a difference between astrocytes and glial cancer cells in this distinctive homeostatic pattern. The findings presented in this study, indicate that there are striking differences between glial cells and their cancer counterpart. The model utilizes rat cells but the observations extend and apply to human glioma cells as well. When the responses of normal astrocytes and C6 cells to thapsigargin (THAP), an agent able to block SERCA, therefore causing the release of Ca^2+ from the ER, were compared it was evident that C6 was more sensitive to the THAP (FIG. 2). However, the difference can be ascribed to one of many possibilities. […]
This phase is dependent on the balance of Ca^2+ influx triggered by store depletion and the reuptake in the ER due to SERCA activity. […] To investigate the role of influx triggered by ICS depletion, CCE was analyzed following THAP-induced depletion of ICS. […]

p53 = conditions: cited from earlier work
[2] = test system: U87-MG skin xenograft tumor explants; assay: U87-MG skin xenograft tumor explants, ERSR markers; assay type: in vivo, mice; conditions: samples after 7 and 21 days
Source text: U7 represents vehicle treated sample after 7 days. U21 represents vehicle treated sample after 21 days. Q7 represents quinacridine-treated sample after 7 days. Q21 represents quinacridine-treated sample after 21 days. 9AA-7 represents 9-aminoacridine-treated sample after 7 days. 9AA-21 represents 9-aminoacridine-treated sample after 21 days.

tumor cells = conditions: in vitro and in vivo; cited from earlier work
NF-κB = conditions: tumor cells; cited from earlier work
[3] = test system: subcutaneous U87-MG gliomas; assay: Mice bearing subcutaneous U87-MG gliomas; assay type: in vivo
Source text: The estimated survival prolongment is 14 days in mice life which compares at 851 days in human life based on a life expectancy of 18 months in mice and 90 years in human. Also, since one animal was tumor-free at the end of the treatment that translates in an expected 16% cure rate.
FIG. 29a graphs % tumor weight/control as a function of days after implantation. […] Such a profile indicates effectiveness in vivo for both treatment and for prevention of relapse. FIG. 29b graphs % animal survival as a function of days after implantation. […] Such a profile indicates effectiveness in vivo for both treatment and for prevention of relapse.
Mice bearing subcutaneous gliomas were received daily oral administration of 200 mg/kg of quinacrine. […] In FIG. 29 is shown the effect of 100 mg/kg of quinacrine and 10 mg/kg 9-aminoacridine in Mice bearing subcutaneous U87-MG gliomas.

DNA = conditions: cited from earlier work
C6 [4] = assay: TUNEL labeling in C6; assay type: cell-based, rat; conditions: C6, 24 hours
Procedure: C6 were plated on glass coverslips. Cells were fixed and stained accordingly to manufacturer instructions. Propidium staining of the nuclei was replaced by Hoechst included in the mounting media. Several images were acquired with a high resolution camera on a microscope equipped with a 10× long working distance dry lens and analyzed with powerful commercial software. Results were expressed in the graph as green labeled pixel counts. The images from the top to the bottom are respectively from N.T., DMSO, Thap 20 nM, Thap 200 nM, STS100 nM. The blue images reflect nuclear staining while the images on the right represent BRDU staining.
Thereafter, cells were harvested and protein extracted. Procaspase 12 band at 65 kDa was identified. In some of the treatments, the active product at 45 kDa was also detected. […] Conversely, in C6, higher GRP78 levels and the cell environment reflect significant caspase activation. […] Caspase activation in ERSR conditions was also confirmed with a TUNEL based apoptosis detection system in C6. […] High resolution images of the experiments were acquired and image morphometric analysis was performed to determine quantitative parameters of the staining as previously described (Pascale et al., 2004, “Translocation of protein kinase C-betaII in astrocytes requires organized actin cytoskeleton and is not accompanied by synchronous RACK1 relocation.” Glia 46(2): 169-82). […]

[5] = full dose over about 45 days, Q oral, 9-AA I.P.
[6] = half dose (maintenance dose) up to about 60 days

CCN(CC)CCCC(C)Nc1c2ccc(Cl)cc2nc2ccc(OC)cc12.Cl.Cl (stereo not drawn) [quinacrine hydrochloride, 6-chloro-9-((4-(diethylamino)-1-methylbutyl)amino)-2-methoxyacridine dihydrochloride]
PLA2 inhibition in platelets (phospholipase A2 (PLA2)): phospholipase A2 (PLA2) inhibitor | reduction of the inflammogenic potency of PLA2 (PLA2): 64%

Cl.Nc1c2ccccc2nc2ccccc12.O [9-aminoacridine, hydrate, hydrochloride]
GRP78 promoter driven luciferase (GRP78-luc) expression (GRP78 promoter; hydrate, hydrochloride): causes increased expression of the GRP78-luc reporter gene | gliotoxicity (glioma cells): causes gliotoxicity

O=C(CCCN1CCC2(CC1)C(=O)NCN2c1ccccc1)c1ccc(F)cc1 [spiperone]
hit in Prestwick library screening (value above average of negative controls + 3 SD) (GRP78 promoter; 2 μM, 5000 cells/well, read after 16 h): potentially attractive lead compounds

Nc1ncnc2c1ncn2[C@@H]1O[C@H](COP(=O)(O)OP(=O)(O)OP(=O)(O)O)[C@@H](O)[C@H]1O [ATP]
[Ca2+]i response of C6 to ATP compared with astrocytes (C6 [1]): increased elevation of [Ca^2+]i

Nc1c2ccccc2nc2ccccc12 [9-aminoacridine]
p53 activation and p53-dependent killing of tumor cell types (p53): capable of p53 activation and p53-dependent killing | ERSR activation and GRP78 target protein in tumor explants [2]: activaiton of ERSR and changes in GRP78 target protein | caspase 12 activation in tumor explants [2]: activation of caspase 12 is evident | toxicity to tumor versus normal cells (tumor cells): more toxic to tumor than to normal cells | stimulated and basal constitutive NF-κB activity (NF-κB): block stimulated NF-κB activity and also effectively reduce basal levels of constitutive NF-κB activity | cure rate ([3]; 10 mg/kg 9-aminoacridine): 77% | antiglioma action ([3]; 100 mg/kg of quinacrine and 10 mg/kg 9-aminoacridine): powerful antiglioma action | tumor once survival rate stabilized ([3]; 9-AA I.P.): no sign of tumor | animal survival rate compared to control [3, 5]: increased survival rate | tumor size compared to control [3, 5]: decrease in tumor size | animal survival rate compared to control [3, 6]: survival rate was high | tumor size compared to control [3, 6]: tumor size remained relatively constant | DNA damaging activity (DNA): not found to show DNA damaging activity

CN[C@@H]1C[C@H]2O[C@@](C)([C@@H]1OC)n1c3ccccc3c3c4c(c5c6ccccc6n2c5c31)C(=O)NC4 [staurosporin]
TUNEL labeling (C6 [4]): clear increase of TUNEL labeling

CCN(CC)CCCC(C)Nc1c2cc(OC)ccc2nc2cc(Cl)c(N)cc12 (stereo not drawn) [OSSL-053454, 3-chloro-N^9-(5-(diethlyamino)pentan-2-yl)-7-methoxy acridine-2,9-diamine]
GRP78 promoter driven luciferase (GRP78-luc) expression (GRP78 promoter): causes an increase of the GRP78-luc reporter gene similar to the increase caused by quinacrine | GRP78 promoter driven luciferase (GRP78-luc) expression (GRP78 promoter; listed as OSSL 53454): causes an increase of the GRP78-luc reporter gene as quinacrine | gliotoxicity (glioma cells): causes gliotoxicity similar to that caused by quinacrine | gliotoxicity (glioma cells; listed as OSSL 53454): causes gliotoxicity
